# Experiments:
# [1] = test system: A549 non-small cell lung carcinoma xenograft; experiment: A549 xenograft model; format: in vivo, Female athymic NCr-nu/nu nude mice; details: for TGI % (tumor growth inhibition): 5 mg/kg i.p. every other day for 13 days, day 23, relative to control; for tumor growth: 5 mg/kg i.p. every other day for thirteen days
# [2] = Prodrug processing in plasma or whole blood; format: in vitro ADME
# [3] = test system: A549 tumor; format: in vivo, Female athymic NCr-nu/nu nude mice; details: 5 mg/kg i.p. on four consecutive days
# [4] = test system: SW620 (colorectal adenocarcinoma) cells; experiment: Cell cycle distribution; format: cell-based; details: SW620, 24 hours
Compound,TGI % (tumor growth inhibition) [1] [%],TGI % (tumor growth inhibition) ([1]; listed as Larg.) [%],tumor growth [1],prodrug level after room temperature incubation in plasma or whole blood [2],acetylated H3 and H4 in tumor lysates (western blot) relative to control [3],cell cycle dose dependence [4],concentration for G2 arrest [4] [nM]
CCCCCCCC(=O)SCC/C=C/[C@@H]1CC(=O)NCc2nc(cs2)C2=N[C@@](C)(CS2)C(=O)N[C@@H](C(C)C)C(=O)O1 [Largazole],32,32,tumor growth rate was slower,< LLOQ after ten minutes,increased acetylation relative to control,clear switch from G1 to G2 arrest with increasing concentration,> 50
Largazole thiol,–,–,tumor growth rate was slower,–,–,–,–
